{"source": "paper PMC8766756", "about": "“Insights on Cancer Cell Inhibition, Subcellular Activities, and Kinase Profile of Phenylacetamides Pending 1H-Imidazol-5-One Variants” (Frontiers in Pharmacology, 2022)", "experiment_in_all_cases": "PamChip tyrosine kinase microarray", "format_in_all_cases": "biochemical", "conditions_in_all_cases": "0.1 µM, HL60 lysate", "key": {"JAK3 (P52333)": {"molecular_target": "T1, JAK3 (P52333) (Homo sapiens, UniProt P52333)", "T1 construct": "purchased PamGene (PamChip PTK array, Upstream Kinase Analysis)", "T1 sequence (P52333 1-1124)": "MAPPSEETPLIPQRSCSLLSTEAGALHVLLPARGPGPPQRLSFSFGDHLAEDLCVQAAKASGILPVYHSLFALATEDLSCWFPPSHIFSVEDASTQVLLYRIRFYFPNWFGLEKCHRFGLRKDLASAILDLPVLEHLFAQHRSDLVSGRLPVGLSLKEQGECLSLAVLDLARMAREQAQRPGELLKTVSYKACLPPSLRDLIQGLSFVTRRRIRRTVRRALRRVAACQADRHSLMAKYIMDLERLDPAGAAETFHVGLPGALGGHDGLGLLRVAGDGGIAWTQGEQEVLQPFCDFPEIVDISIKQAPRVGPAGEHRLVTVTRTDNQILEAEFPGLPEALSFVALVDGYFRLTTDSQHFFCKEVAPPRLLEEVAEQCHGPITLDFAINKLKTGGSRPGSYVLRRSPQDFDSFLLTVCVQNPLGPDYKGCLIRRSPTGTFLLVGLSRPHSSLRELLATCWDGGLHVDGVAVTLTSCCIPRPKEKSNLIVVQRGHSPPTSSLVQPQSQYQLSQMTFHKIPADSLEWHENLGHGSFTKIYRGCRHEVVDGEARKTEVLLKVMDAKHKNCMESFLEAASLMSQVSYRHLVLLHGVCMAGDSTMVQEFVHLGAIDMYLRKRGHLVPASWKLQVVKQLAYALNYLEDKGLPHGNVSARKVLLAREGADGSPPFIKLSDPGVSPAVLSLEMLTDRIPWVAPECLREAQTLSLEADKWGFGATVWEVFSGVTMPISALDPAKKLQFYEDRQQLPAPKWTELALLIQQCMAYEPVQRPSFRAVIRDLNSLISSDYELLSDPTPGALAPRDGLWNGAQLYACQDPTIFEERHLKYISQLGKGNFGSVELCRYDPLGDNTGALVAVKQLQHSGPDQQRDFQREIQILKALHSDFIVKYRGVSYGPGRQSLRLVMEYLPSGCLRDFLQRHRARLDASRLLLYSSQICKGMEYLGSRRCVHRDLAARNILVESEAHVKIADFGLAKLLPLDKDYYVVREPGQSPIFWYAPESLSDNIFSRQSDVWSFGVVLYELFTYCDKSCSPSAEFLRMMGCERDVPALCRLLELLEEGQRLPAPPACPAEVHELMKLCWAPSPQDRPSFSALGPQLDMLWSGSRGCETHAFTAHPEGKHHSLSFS", "method": "(§1) The reproducible high potency of KIM-161 on leukemia cell lines was initially speculated to encompass Src tyrosine kinase inhibition. Even so, we also suspected that KIM-161 might be affecting other tyrosine kinases because the HL60 cells are not among the most Src-dependent highly proliferative cells ([Collins, 1987]). Therefore, a profiling of the kinase activities was performed after treatment with KIM-161 using PamChip® tyrosine kinase microarray. This analysis is based on incubation of cell lysate with 3D microarray that projects peptides specific for 143 tyrosine kinases. If a kinase is modified in the cells, it will be detected by phosphorylating its specific peptide in the microarray.\n(§2) This test measured the activities of an array of tyrosine kinases of treated HL60 cells compared to the control (untreated cells) after incubation with KIM-161 for 48 h at concentrations of 0.001, 0.01, 0.1, 1.0, 10, and 50 µM. The log fold change (LFC) heat map was initially used to identify significant peptides affected at each concentration (Figure 5).\n(§3) An Upstream Kinase Tool was used to generate a putative list of kinases responsible for phosphorylating the phosphosites on the PamChip®. It is an interpretation and is highly dependent on the contents of the underlying phosphorylation databases. Kinase score (Table 2) was used for ranking kinases based on their significance and specificity in terms of the set of peptides used for the corresponding kinase. Kinase statistics indicates the overall change of the peptide set that represents a certain kinase. Kinase statistics value of <0 indicates lower kinase activity in the lysate spiked with the compound and vice versa. Table 2 lists the 20 most changed kinases within treated HL60 cell lysates by 0.1 μM KIM-161.\n(§4) Every compound had spiked into a leukemic (AML) cell line HL60 lysate at different concentrations (0.001, 0.01, 0.1, 1, 10, and 50 μM). In addition, DMSO had also spiked at a low concentration (2% v/v) to the HL60 lysate as the control. The samples were profiled on PamGene's tyrosine kinase (PTK) arrays in technical replicates, covering a total of 196 phosphorylation sites. The frozen leukemic HL60 cultured cell pellet was sent to PamGene. At PamGene, the cells were lysed in the presence of the lysis buffer and proteases inhibitor cocktail. The protein concentration was measured using the standard Bradford assay as per the PamGene SOPs. These lysates were further used for generating the PTK activity profiles. For spiking, KIM-161 was received in powder form and dissolved in DMSO at the PamGene facility, followed by storing it at −20°C in small aliquots. PamGene used its in-house bioinformatics toolbox in combination with other methods to generate the hypotheses of signaling pathways."}, "FmS/CSFR (P07333)": {"molecular_target": "T2, FmS/CSFR (P07333) (Homo sapiens, UniProt P07333)", "T2 construct": "purchased PamGene (PamChip PTK array, Upstream Kinase Analysis)", "T2 sequence (P07333 20-972, one chain of several)": "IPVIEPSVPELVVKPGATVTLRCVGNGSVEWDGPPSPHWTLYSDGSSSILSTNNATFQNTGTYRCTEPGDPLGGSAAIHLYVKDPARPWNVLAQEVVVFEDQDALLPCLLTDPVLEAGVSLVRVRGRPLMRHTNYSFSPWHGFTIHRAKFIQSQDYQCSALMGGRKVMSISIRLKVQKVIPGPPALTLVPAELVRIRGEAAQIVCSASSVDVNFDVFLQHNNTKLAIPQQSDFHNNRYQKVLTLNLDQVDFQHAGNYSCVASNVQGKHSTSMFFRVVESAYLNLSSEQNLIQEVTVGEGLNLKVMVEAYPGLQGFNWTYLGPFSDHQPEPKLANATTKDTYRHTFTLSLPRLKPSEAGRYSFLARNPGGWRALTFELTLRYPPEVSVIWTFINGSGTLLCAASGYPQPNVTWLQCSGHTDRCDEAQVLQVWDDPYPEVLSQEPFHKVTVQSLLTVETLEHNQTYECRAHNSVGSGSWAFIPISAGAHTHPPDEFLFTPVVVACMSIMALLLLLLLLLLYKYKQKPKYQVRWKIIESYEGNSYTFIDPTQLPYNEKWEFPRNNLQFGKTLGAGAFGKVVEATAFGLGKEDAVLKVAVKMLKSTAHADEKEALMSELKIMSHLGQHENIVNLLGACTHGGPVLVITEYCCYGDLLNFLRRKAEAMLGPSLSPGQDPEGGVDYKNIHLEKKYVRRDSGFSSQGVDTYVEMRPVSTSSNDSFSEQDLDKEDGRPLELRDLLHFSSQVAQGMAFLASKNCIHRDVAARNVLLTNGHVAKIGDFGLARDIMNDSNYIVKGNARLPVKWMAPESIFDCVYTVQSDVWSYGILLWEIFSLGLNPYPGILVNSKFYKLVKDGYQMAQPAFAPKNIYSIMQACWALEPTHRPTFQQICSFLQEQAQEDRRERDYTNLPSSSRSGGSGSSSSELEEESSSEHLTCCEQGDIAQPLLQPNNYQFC", "method": "as §1, §2, §3, §4"}, "KDR (P35968)": {"molecular_target": "T3, KDR (P35968) (Homo sapiens, UniProt P35968)", "T3 construct": "purchased PamGene (PamChip PTK array, Upstream Kinase Analysis)", "T3 sequence (P35968 20-1356)": "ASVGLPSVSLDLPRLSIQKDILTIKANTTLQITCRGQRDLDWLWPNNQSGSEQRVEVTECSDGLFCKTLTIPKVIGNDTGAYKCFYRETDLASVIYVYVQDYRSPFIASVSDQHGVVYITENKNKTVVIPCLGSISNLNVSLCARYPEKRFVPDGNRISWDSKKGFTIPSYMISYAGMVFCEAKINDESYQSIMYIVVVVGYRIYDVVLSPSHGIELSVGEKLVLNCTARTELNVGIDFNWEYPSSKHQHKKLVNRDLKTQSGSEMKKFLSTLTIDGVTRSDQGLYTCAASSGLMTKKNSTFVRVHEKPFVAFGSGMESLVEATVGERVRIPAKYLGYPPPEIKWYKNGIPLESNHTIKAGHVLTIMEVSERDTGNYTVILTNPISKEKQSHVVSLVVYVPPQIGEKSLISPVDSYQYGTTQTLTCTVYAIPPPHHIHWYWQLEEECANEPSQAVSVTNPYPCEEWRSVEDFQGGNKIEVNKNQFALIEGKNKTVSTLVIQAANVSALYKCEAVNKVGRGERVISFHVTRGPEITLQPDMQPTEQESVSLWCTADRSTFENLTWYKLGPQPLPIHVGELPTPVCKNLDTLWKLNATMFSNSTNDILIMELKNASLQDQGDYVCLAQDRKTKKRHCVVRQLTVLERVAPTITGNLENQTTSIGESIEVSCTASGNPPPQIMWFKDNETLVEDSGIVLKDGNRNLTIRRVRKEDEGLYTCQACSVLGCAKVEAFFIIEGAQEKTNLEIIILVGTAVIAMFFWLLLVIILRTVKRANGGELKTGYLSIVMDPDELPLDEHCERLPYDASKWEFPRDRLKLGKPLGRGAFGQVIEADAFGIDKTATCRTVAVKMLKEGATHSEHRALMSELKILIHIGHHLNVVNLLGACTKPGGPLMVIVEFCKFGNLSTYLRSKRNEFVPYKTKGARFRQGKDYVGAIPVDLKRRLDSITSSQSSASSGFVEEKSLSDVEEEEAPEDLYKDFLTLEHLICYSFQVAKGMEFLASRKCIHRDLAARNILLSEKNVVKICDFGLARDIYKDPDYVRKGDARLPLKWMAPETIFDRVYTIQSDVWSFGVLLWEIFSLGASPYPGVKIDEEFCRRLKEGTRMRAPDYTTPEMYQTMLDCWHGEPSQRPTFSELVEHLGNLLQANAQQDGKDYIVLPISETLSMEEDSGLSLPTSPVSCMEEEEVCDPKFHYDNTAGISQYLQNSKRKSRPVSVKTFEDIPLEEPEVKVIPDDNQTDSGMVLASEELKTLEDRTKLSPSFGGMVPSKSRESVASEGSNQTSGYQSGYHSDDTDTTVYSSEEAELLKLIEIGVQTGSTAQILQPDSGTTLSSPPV", "method": "as §1, §2, §3, §4"}, "Yes (P07947)": {"molecular_target": "T4, Yes (P07947) (Homo sapiens, UniProt P07947)", "T4 construct": "purchased PamGene (PamChip PTK array, Upstream Kinase Analysis)", "T4 sequence (P07947 whole entry)": "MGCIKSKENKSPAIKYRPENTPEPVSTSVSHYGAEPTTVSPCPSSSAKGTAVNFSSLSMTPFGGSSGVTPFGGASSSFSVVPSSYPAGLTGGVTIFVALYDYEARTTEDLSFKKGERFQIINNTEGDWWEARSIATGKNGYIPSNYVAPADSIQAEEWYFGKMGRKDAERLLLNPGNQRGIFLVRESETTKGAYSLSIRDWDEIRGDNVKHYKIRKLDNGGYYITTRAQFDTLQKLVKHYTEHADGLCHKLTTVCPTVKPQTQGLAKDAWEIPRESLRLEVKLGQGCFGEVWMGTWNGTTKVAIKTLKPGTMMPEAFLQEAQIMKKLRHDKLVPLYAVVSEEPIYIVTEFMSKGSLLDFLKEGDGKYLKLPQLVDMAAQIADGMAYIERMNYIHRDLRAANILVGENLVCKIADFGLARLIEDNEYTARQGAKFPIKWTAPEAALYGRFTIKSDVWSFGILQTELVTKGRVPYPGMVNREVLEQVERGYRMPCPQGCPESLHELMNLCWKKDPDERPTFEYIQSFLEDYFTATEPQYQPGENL", "method": "as §1, §2, §3, §4"}, "Ron (Q04912)": {"molecular_target": "T5, Ron (Q04912) (Homo sapiens, UniProt Q04912)", "T5 construct": "purchased PamGene (PamChip PTK array, Upstream Kinase Analysis)", "method": "as §1, §2, §3, §4"}, "Syk (P43405)": {"molecular_target": "T6, Syk (P43405) (Homo sapiens, UniProt P43405)", "T6 construct": "purchased PamGene (PamChip PTK array, Upstream Kinase Analysis)", "method": "as §1, §2, §3, §4"}, "PDGFR[beta] (P09619)": {"molecular_target": "T7, PDGFR[beta] (P09619) (Homo sapiens, UniProt P09619)", "T7 construct": "purchased PamGene (PamChip PTK array, Upstream Kinase Analysis)", "T7 sequence (P09619 33-1106)": "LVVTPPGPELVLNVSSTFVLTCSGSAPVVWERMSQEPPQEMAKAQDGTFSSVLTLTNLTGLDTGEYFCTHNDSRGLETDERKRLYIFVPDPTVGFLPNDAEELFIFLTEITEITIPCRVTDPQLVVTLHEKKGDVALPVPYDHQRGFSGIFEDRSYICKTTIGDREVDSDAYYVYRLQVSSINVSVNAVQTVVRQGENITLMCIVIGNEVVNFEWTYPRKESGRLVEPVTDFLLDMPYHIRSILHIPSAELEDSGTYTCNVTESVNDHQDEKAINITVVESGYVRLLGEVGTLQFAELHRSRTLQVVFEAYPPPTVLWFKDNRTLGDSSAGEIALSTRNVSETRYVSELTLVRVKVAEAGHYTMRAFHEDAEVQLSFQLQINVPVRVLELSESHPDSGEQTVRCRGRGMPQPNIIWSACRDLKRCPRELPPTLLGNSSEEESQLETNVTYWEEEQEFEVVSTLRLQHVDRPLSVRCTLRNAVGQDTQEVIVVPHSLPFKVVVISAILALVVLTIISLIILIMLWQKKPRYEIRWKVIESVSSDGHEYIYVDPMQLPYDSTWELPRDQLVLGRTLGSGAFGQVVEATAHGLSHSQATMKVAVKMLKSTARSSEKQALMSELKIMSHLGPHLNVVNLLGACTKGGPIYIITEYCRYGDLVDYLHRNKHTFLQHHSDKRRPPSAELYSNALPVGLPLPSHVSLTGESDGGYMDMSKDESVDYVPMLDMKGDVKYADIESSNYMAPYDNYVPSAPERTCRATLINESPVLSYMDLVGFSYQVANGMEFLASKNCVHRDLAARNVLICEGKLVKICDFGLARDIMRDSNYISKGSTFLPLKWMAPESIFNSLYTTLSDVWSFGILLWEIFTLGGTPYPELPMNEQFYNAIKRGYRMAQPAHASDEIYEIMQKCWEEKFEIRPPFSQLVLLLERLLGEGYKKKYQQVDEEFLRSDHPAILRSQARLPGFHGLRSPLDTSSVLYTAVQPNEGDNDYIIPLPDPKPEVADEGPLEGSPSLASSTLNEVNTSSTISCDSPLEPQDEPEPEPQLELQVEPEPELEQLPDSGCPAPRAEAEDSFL", "method": "as §1, §2, §3, §4"}, "EphA7 (Q15375)": {"molecular_target": "T8, EphA7 (Q15375) (Homo sapiens, UniProt Q15375)", "T8 construct": "purchased PamGene (PamChip PTK array, Upstream Kinase Analysis)", "T8 sequence (Q15375 28-998)": "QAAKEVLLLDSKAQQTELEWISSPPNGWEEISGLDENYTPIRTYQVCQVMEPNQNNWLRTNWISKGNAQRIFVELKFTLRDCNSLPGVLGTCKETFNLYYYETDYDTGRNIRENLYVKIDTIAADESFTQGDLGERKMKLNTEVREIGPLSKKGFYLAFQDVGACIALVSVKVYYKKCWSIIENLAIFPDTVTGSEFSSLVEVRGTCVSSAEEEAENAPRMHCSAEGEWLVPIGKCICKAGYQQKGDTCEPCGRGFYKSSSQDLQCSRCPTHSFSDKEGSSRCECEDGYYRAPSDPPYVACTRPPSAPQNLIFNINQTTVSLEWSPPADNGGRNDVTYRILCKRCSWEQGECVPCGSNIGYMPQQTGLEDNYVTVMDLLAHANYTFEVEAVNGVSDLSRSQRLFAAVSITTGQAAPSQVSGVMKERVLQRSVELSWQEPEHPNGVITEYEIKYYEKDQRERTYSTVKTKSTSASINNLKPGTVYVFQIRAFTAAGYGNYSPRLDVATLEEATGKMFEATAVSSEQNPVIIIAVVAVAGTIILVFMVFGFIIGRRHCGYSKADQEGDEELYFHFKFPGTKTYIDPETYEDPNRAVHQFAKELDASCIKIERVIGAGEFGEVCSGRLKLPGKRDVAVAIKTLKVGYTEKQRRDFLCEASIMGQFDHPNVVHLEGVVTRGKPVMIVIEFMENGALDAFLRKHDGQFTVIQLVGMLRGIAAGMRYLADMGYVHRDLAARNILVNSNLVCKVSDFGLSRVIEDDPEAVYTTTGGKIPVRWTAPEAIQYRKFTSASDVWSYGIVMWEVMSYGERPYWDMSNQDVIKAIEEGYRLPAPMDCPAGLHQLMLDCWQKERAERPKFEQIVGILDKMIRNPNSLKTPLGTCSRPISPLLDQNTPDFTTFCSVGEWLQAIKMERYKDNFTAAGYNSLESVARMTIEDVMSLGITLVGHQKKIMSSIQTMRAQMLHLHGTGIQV", "method": "as §1, §2, §3, §4"}}, "note": "“And” between values parts separate entries of the source, which are not always exact repeats. Equal values may be shown once."}
{"smiles": "COc1ccc(/C=C2\\N=C(C)N(c3ccc(CC(=O)NCc4ccccc4)cc3)C2=O)cc1", "note": "[Compound 4c, (Z)-N-Benzyl-2-(4-(4-(4-methoxybenzylidene)-2-methyl-5-oxo-4,5-dihydro-1H-imidazol-1-yl)phenyl)acetamide]", "values": [{"measurement": "Mean Final score (Kinase score)", "setting": "JAK3 (P52333)", "result": 1.746}, {"measurement": "Mean Kinase Statistic", "setting": "JAK3 (P52333)", "result": -1.15}, {"measurement": "Mean Significance Score", "setting": "JAK3 (P52333)", "result": 1.478}, {"measurement": "Mean Specificity Score", "setting": "JAK3 (P52333)", "result": 0.2986}, {"measurement": "Mean Final score (Kinase score)", "setting": "FmS/CSFR (P07333)", "result": 2.549}, {"measurement": "Mean Kinase Statistic", "setting": "FmS/CSFR (P07333)", "result": -1.225}, {"measurement": "Mean Significance Score", "setting": "FmS/CSFR (P07333)", "result": 2.048}, {"measurement": "Mean Specificity Score", "setting": "FmS/CSFR (P07333)", "result": 0.582}, {"measurement": "Mean Final score (Kinase score)", "setting": "KDR (P35968)", "result": 2.535}, {"measurement": "Mean Kinase Statistic", "setting": "KDR (P35968)", "result": -1.256}, {"measurement": "Mean Significance Score", "setting": "KDR (P35968)", "result": 2.048}, {"measurement": "Mean Specificity Score", "setting": "KDR (P35968)", "result": 0.5472}, {"measurement": "Mean Final score (Kinase score)", "setting": "Yes (P07947)", "result": 1.8671}, {"measurement": "Mean Kinase Statistic", "setting": "Yes (P07947)", "result": -0.9897}, {"measurement": "Mean Significance Score", "setting": "Yes (P07947)", "result": 1.824}, {"measurement": "Mean Specificity Score", "setting": "Yes (P07947)", "result": 0.04992}, {"measurement": "Mean Significance Score", "setting": "Ron (Q04912)", "result": 2.048}, {"measurement": "Mean Specificity Score", "setting": "Ron (Q04912)", "result": 0.9095}, {"measurement": "Mean Final score (Kinase score)", "setting": "Ron (Q04912); listed as KIM-161", "result": "2.96 and 2.957"}, {"measurement": "Mean Final score (Kinase score)", "setting": "Syk (P43405)", "result": 2.113}, {"measurement": "Mean Kinase Statistic", "setting": "Syk (P43405)", "result": -1.091}, {"measurement": "Mean Significance Score", "setting": "Syk (P43405)", "result": 2.048}, {"measurement": "Mean Specificity Score", "setting": "Syk (P43405)", "result": 0.02997}, {"measurement": "Mean Final score (Kinase score)", "setting": "PDGFR[beta] (P09619)", "result": 2.559}, {"measurement": "Mean Kinase Statistic", "setting": "PDGFR[beta] (P09619)", "result": -1.304}, {"measurement": "Mean Significance Score", "setting": "PDGFR[beta] (P09619)", "result": 2.048}, {"measurement": "Mean Specificity Score", "setting": "PDGFR[beta] (P09619)", "result": 0.562}, {"measurement": "Mean Final score (Kinase score)", "setting": "EphA7 (Q15375)", "result": 0.8806}, {"measurement": "Mean Kinase Statistic", "setting": "EphA7 (Q15375)", "result": -0.6736}, {"measurement": "Mean Significance Score", "setting": "EphA7 (Q15375)", "result": 0.8204}, {"measurement": "Mean Specificity Score", "setting": "EphA7 (Q15375)", "result": 0.0595}]}
